Data on two molecules can be found in publication PMC12215270 (Nature Communications, 2025).

For assay [1], the target named is T1, TgCet (RNA triphosphatase) (Toxoplasma gondii, UniProt S8F0G9).
T1 sequence (S8F0G9 1-920): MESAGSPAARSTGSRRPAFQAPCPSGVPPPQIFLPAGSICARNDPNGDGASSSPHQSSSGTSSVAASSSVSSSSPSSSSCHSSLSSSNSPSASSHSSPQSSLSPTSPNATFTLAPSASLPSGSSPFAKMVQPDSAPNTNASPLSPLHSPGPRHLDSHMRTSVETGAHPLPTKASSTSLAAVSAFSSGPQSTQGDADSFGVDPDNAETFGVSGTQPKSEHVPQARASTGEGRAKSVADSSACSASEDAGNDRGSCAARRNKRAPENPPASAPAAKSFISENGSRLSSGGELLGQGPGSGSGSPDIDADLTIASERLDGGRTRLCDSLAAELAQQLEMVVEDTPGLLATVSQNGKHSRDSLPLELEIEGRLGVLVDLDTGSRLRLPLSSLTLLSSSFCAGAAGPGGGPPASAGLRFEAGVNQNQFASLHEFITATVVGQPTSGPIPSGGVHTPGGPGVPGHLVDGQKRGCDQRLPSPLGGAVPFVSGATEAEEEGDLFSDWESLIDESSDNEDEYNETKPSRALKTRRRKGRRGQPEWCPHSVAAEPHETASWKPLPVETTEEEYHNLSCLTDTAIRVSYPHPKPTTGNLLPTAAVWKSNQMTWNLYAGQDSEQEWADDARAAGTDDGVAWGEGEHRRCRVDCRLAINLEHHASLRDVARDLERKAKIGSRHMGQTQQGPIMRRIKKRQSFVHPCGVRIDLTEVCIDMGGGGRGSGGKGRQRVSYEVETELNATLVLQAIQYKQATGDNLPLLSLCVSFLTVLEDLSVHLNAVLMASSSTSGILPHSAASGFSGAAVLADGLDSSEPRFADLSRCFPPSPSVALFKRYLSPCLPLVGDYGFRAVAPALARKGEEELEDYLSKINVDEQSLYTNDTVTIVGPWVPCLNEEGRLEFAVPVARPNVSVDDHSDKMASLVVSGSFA
Nature of the assay: ATPase assay. Type of assay: biochemical.

Assay [2] concerns the target T2, TgCmt (guanine-N7 methyltransferase) (Toxoplasma gondii, UniProt S8F527).
T2 sequence (S8F527 716-1283): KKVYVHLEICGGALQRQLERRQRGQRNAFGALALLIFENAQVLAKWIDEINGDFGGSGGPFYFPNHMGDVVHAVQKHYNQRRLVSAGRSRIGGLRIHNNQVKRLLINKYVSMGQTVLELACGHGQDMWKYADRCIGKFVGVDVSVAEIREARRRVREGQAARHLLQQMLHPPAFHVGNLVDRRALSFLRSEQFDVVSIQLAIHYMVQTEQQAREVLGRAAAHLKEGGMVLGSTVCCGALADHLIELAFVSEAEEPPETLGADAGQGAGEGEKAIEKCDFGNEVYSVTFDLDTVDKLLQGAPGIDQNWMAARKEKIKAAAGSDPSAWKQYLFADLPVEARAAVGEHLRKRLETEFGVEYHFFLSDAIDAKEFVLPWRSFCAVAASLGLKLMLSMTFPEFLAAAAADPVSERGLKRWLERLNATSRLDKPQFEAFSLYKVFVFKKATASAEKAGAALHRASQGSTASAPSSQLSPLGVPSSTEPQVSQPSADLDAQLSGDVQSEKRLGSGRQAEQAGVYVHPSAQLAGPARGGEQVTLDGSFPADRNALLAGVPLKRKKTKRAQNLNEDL
Nature of the assay: in vitro RNA cap methylation, anti-m7G immuno-dot blot. In kind it is biochemical.

Take `O=c1c(O)c(-c2cc(O)c(O)c(O)c2)oc2cc(O)cc(O)c12` [Myricetin]: half-maximal inhibition in assay [1] (IC50) was put at 400 nM.

Regarding `Nc1ncnc2c1ncn2[C@@H]1O[C@H](C[C@@H](N)CC[C@H](N)C(=O)O)[C@@H](O)[C@H]1O` [sinefungin], the “in vitro RNA cap methylation, anti-m7G immuno-dot blot” value in assay [2] is on record as “sinefungin inhibits m^7GpppN32 synthesis in a concentration-dependent manner”.
